One series has as its system human liver cells. Description: Cytotoxicity on donor liver cells. The series is classed as cell-based.
The test system of series [1] is hematological tumor cells. The experiment in a line: Proliferation, MTT or Alamar Blue. The series is classed as cell-based. As to conditions: Homo sapiens. For orientation: Resazurin is reduced to fluorescent resorufin, in cell work by metabolically active cells.
The test system of the next series is CYP2B6. Description: CYP induction, cryopreserved human liver cells. The series is classed as in vitro ADME. Particulars: 0.0500, 0.500, 5.00 µM; three donors.
Series [2] in a line: Body weight of MM1S xenograft, DEL and r/r DLBCL PDX mice. The series is classed as in vivo. As to conditions: treatment groups of the mouse models.
Procedure: Mice received subcutaneous inoculation with 0.5 × 10^7 MM1S or RPMI-8226 cells, to establish xenograft models. […] When tumors reached 150–250 mm^3, mice were treated with various compounds. PM and panobinostat were administered intravenously three times a week at 5 mg/kg in combination therapy. […] Tumor volume (tumor volume (mm^3) = π/6 × length × width^2) and body weights were measured every two days.
The test system of a further series is rabbit red blood cells. The experiment in a line: In vitro hemolytic test. Particulars: 0.204 mg/mL. How it is done:
This experiment included a negative control group (0.9% sodium chloride injection), a positive control group (sterile water for injection), a blank formulation group of injectable Purinostat Mesylate with five dosage levels (0.1, 0.2, 0.3, 0.4, and 0.5 mL/test tube at a concentration of 3.06 mg/mL, which is the same as the concentration of the excipient in the injectable Purinostat Mesylate group), and five dosage levels of injectable Purinostat Mesylate (0.1, 0.2, 0.3, 0.4, and 0.5 mL/test tube at a concentration of 0.204 mg/mL, the maximum intended clinical concentration). A 2% red blood cell suspension was mixed with 0.9% sodium chloride injection, sterile water for injection, the blank formulation of injectable Purinostat Mesylate, and injectable Purinostat Mesylate in the specified proportions, and then placed in a constant temperature incubator at 37±0.5°C. […] Each group was measured in parallel three times.

Series [3] concerns c-MYC/KRAS12V transformed BaF3 cells. Description: Cell viability CCK8. The series is classed as cell-based. How it is done:
PM, panobinostat, Pom and DXM were dissolved in DMSO and stored at -20°C freezer. Cells were seeded at a density of 1.0-3.0 × 10^4 cells/well/100 μL in 96-well plates. After overnight incubation, cells were treated with the drug-containing culture medium for 24, 48, or 72 hours, and cell viability was measured using CCK8 (Oriscience, Chengdu, China) at the indicated time points with Biotek Cytation 3 at a wavelength of 450 nm. The IC50 values were calculated using GraphPad Prism 9.4.1, and Calcusyn 2.0 software was employed to calculate the CI values.
Mice were weighed every two days. All data are represented as mean ± SEM.

A further series concerns Ramos-luc. Description: Luciferase substrate viability assay. It counts as cell-based, human.
For another series, the system named is r/r DLBCL PDX. Description: r/r DLBCL PDX mouse model. The series is classed as in vivo, mice. Particulars: PM 10 mg/kg; Pola-BR per Table S9. On the procedure:
All animal studies were performed in accordance with the guidelines approved by the Institutional Animal Care and Use Committee of Sichuan University, Chengdu, China. Six- to seven-week-old female NOD-SCID mice were purchased from Beijing Vital River Laboratory Animal Technology Co., Ltd. (China). Mice received subcutaneous inoculation with 0.5 × 10^7 MM1S or RPMI-8226 cells, to establish xenograft models. Heterotopic PDX models were generated as previously described.[54] When tumors reached 150–250 mm^3, mice were treated with various compounds. PM and panobinostat were administered intravenously three times a week at 5 mg/kg in combination therapy. […] Tumor volume (tumor volume (mm^3) = π/6 × length × width^2) and body weights were measured every two days. At the end, tumor tissues were weighed, and antitumor activity was evaluated by the tumor inhibition rate = (1 − tumor weight of treatment group/tumor weight of vehicle group) × 100%.

A further series has as its system CHL cells. The experiment in a line: In vitro chromosomal aberration test. It counts as cell-based. Particulars: 30–1000 µg/mL 4 h ±S9; 3.75–30 µg/mL 24 h. How it is done:
This experiment employed two methods: one without the S9 metabolic activation system and one with the S9 metabolic activation system. The method without the S9 metabolic activation system utilized two exposure times of 4 hours and 24 hours, while the method with the S9 metabolic activation system used a 4-hour exposure time. The test was conducted using a 2% dosing volume ratio. Under the 4-hour exposure conditions, the final concentrations of Purinostat Mesylate were set at 30, 100, 300, and 1000 µg/mL; under the 24-hour exposure conditions, the final concentrations were set at 3.75, 7.5, 15, and 30 µg/mL. Additionally, a solvent control group (DMSO) and a positive control group (administering the appropriate positive agent) were included. After the culture period for each concentration group, cells were collected and prepared for microscopy. After Giemsa staining, 1000 cells were observed under a microscope to record the number of cells in the metaphase stage and calculate the mitotic index inhibition rate for each group. For chromosome aberration assessment, 200 metaphase cells were observed, and the chromosome aberration rate was calculated for each group.

Series [4] in a line: Metabolites in dog plasma. It counts as in vivo, Beagle dogs. As to conditions: male and female dogs. An excerpt:
Four metabolites of Purinostat Mesylate were detected in plasma samples from both male and female dogs, namely M4 (MW = 636.66, unknown product), M8 (MW = 474.52, reduction product), M13 (MW = 505.54, methylation product), and M16 (MW = 475.50, hydrolysis product). The primary metabolic pathways involved hydrolysis, methylation, and reduction, with no significant gender differences observed. The parent compound, Purinostat Mesylate, accounted for more than 35% of the UV absorption peak area in the plasma samples from both male and female dogs, indicating it is one of the major components. Purinostat Mesylate is primarily metabolized in the plasma of male and female dogs through hydrolysis, methylation, and reduction pathways. A possible metabolic pathway structure diagram is shown below: […]

The target of another series is HDAC2 (Homo sapiens, UniProt Q92769). Description: HDAC enzyme activity in vitro. It counts as biochemical.
Sequence of HDAC2 (Q92769 whole entry): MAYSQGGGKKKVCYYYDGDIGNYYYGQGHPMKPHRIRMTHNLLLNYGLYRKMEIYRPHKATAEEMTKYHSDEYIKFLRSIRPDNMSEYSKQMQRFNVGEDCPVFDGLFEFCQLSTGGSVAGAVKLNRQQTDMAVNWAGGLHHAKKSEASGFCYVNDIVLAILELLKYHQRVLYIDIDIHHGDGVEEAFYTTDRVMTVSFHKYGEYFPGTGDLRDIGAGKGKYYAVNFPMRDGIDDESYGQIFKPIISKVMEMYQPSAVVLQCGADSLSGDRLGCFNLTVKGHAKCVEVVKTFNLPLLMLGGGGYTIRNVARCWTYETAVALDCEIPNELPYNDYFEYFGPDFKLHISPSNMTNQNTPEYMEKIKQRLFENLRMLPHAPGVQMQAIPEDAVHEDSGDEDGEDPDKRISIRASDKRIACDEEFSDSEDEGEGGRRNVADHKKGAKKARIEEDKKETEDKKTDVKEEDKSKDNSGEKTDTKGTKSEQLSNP
A short description of series [5]: Plasma level in wild-type mice. The series is classed as in vivo. Particulars: single i.v. 5 mg/kg, listed as Purinostat Mesylate. On the procedure:
The mean residence times (MRT) were 6.00 ± 1.00 h, 24.8 ± 1.03 h, and 23.4 ± 3.59 h, respectively. […] However, in Ighmyc mice, the plasma drug concentration after the same duration was 7.11 ± 3.15 ng/mL. […] The pharmacokinetic characteristics support the notion that spaced dosing of the drug can still maintain favorable pharmacodynamic outcomes.

In another series the test system is HUVEC. Description: Proliferation, MTT or Alamar Blue. The series is classed as cell-based. Particulars: Homo sapiens, read-out: IC50, normal HUVEC cells.
A short description of series [6]: Acute toxicity test, intravenous. The series is classed as in vivo, rats. On the procedure: The experimental design included low, medium, and high doses of 50, 100, and 200 mg/kg administered intravenously. In the medium and high-dose groups, symptoms observed included ear reddening, reduced activity, prone posture, rapid breathing, and deep gasping; in the high-dose group, additional signs included deep gasping, arched back, and weight loss.

pIC50: −log10 of the molar value. “Also recorded” adds a separate entry of the source. Read-outs that look alike come from different tables or passages of the source. Where only a bound is given, the exact number is not on record here.

Procedure for T315I Bcr-Abl B-ALL: Subcutaneous or orthotopic tumor models were established using NOD/SCID mice for human-derived lymphoma, multiple myeloma cell lines, and samples from clinical B-ALL patients. The Ighmyc transgenic mice and primary B-ALL models were induced using C57 mouse strains. The experimental doses of Purinostat Mesylate include 1.25, 2.5, 5, 10, and 20 mg/kg, administered via tail vein (i.v.) three times a week. In each model experiment, the positive control drugs included the HyperCVAD regimen (cyclophosphamide, doxorubicin, vincristine, dexamethasone, methotrexate, and cytarabine) simulating clinical treatment for double-hit lymphoma, the CODOX regimen (cyclophosphamide, doxorubicin, vincristine, methotrexate, and cytarabine) simulating clinical treatment for Burkitt lymphoma, as well as lenalidomide (L), bortezomib (B), dexamethasone (D), and LBH589 lactate, which is marketed for relapsed or refractory multiple myeloma. In the subcutaneous tumor model experiments using human-derived tumor cell lines, the inhibitory effect of Purinostat Mesylate on tumors was assessed by measuring tumor volume (TV), tumor weight, relative tumor volume (RTV), and relative tumor growth rate (T/C). Additionally, in some model experiments, satellite groups were designed, where animals in these groups were not sacrificed at the same treatment endpoint and received extended treatment. […]

The pIC50 is the IC50 on a negative log10 scale, so that one unit is a factor of ten. What is called MTD is the highest dose tested that stayed within the study's limit of toxicity. On to `CN(Cc1nc2c(N3CCOCC3)nc(-c3ccc(N)cc3)nc2n1C)c1ncc(C(=O)NO)cn1.CS(=O)(=O)O` [PM, 2-(((2-(4-Aminophenyl)-9-methyl-6-(4-morpholinyl)-9H-purine-8-yl)methyl)methylamino)-N-hydroxy-5-pyrimidine-carboxamide Mesylate], for which the “cytotoxicity on donor liver cells” value in the series with human liver cells was “exhibited cytotoxic effects on donor liver cells at concentrations up to 5.00 μM”. For the same molecule, the pIC50 in series [1] (read-out: IC50, hematological tumor cells) was greater than 8.00; in [1] (some cell lines, read-out: IC50, hematological tumor cell lines), greater than 9.00; on HDAC2 it was 8.85; in the series on HUVEC it was 7.16. In addition, the median survival time result in the series on T315I Bcr-Abl B-ALL (5 mg/kg, solvent control 44 days) was “greater than 80 days”; with T315I Bcr-Abl B-ALL (10 mg/kg), “greater than 80 days”. In addition, the “induction of CYP2B6” value in the series with CYP2B6 is reported as “did not act as an inducer”. The “body weight / side effects” value in [2] is recorded as “no weight loss or other evident side effects”. Further, in the series on rabbit red blood cells, the “in vitro hemolytic test outcome” value is on record as “negative”. The “superior antiproliferation activity compared to panobinostat” value in series [3] is listed as roughly 4 fold. Moreover, the “time until effect detectable” value with Ramos-luc is 24 h. In addition, in the series on r/r DLBCL PDX, the tumor inhibition rate is 77.14%. Further, the “chromosomal aberration test result” value in the series with CHL cells is given as “negative”. In series [4], the “share of UV absorption peak area in plasma samples” value is recorded as “more than 35%”. The “plasma drug concentration at 24 hours” value in [5] is listed as “no drug concentration was detected in the plasma at 24 hours; also recorded: no drug concentration was detectable in plasma after 24 hours; also recorded: undetectable”. Moreover, the MTD in series [6] (both sexes, rat, in vivo, iv, single i.v., read-out: maximum tolerated dose (MTD)) stood at 100 mg/kg. Besides, the mortality result in [6] (high dose 200 mg/kg, days 1 to 6) is listed as “Six out of ten”.

Values taken from article PMC12198407, “Preclinical and first-in-human of purinostat mesylate, a novel selective HDAC I/IIb inhibitor, in relapsed/refractory multiple myeloma and lymphoma” (Signal Transduction and Targeted Therapy, 2025).
